Results reported in US7618988B2, “Use of substituted aminomethyl chromans” (Merck Patentgesellschaft, priority 2001, dated 2009).

How the values were obtained:
[1] = biological target: 5-HT1A receptor (UniProt P19327); experiment: 5-HT1A receptor radioligand binding; settings: in vitro radioligand binding; read-out: IC50, binding to 5HT1A receptors
Excerpt: The affinity to the 5-HT1A receptor can be determined in vitro by radioligand binding experiments according to Cossery J M et al. (Eur. J. Pharmacol. 1987; 140: 143-155). The functional agonistic properties at the 5HT1A receptor can be determined in vitro in the GTP-gamma-S test (Newman-Tancredi A et al., Eur. J. Pharmacol.1996; 307: 107-111). A standard in vivo animal model to test for the 5HT1A agonistic properties is the ultrasonic vocalization test in rats (e.g. deFry J et al., Eur. J. Pharmacol. 1993; 249: 331-339; Sanchez C, Behav. Pharmacol. 1993; 4: 269-277). The affinity for dopamine D4 receptors can be determined in vitro by radioligand binding experiments according to Klokow M et al. (Drug Res. 1986; 36: 197-200).

[2] = system: cataleptic rat; experiment: reversal of catalepsy in rats; type: in vivo; settings: Rattus norvegicus, sc, subcutaneous, read-out: ED50 (calculated dose to reverse catalepsy by 50%)
Procedure: R represents hydrogen or a hydroxyl protecting group, and their optical isomers and pharmaceutically acceptable salts, in particular 2-({[5-(4-fluorophenyl)-pyridin-3ylmethyl]-amino}-methyl)-chroman-4-ol or an optical isomer or a physiologically acceptable salt or solvate thereof, excert an extraordinary potency in reversing catalepsy. Extrapyramidal motor side effects in e.g. rodents are measured by the ability of a drug to induce catalepsy. Catalepsy is defined as a state where an animal continues to remain in an unnormal (nonphysiological ‘uncomfortable’) posture for a long time (e.g.: M. E. Stanley and S. D. Glick, Neuropharmacology, 1996; 15: 393-394; C. J. E. Niemegeers and P. Janssen, Life Sci., 1979, […]). For example, if a hindpaw of a rat is placed on an elevated level, e.g. a platform elevated 3 cm above ground level, a normal rat immediately withdraws the hindpaw from the platform to the ground level. A cataleptic rat remains in this unnatural posture even for minutes.

[3] = system: reserpinized rat or mouse; experiment: reserpinized rat or mouse (akinesia); type: in vivo; settings: 24 h after reserpine
Procedure: A typical animal model is the reserpinized rat or mouse (e.g. M. S. Starr and B. S. Starr, J. Neural Transm.—Park. Dis. Dement. Sect., 1994; 7: 133-142; M. Gossel et al., J. Neural Transm.—Park. Dis. Dement. Sect., 1995; 10: 27-39; N. R. Hughes et al., Mov. Disord., 1998; 13: 228-233). Reserpine is a potent depleter of monoamines and produces nearly complete akinesia in both species. Prominent 24 h after application, the distance travelled and the time active is nearly zero as measured in conventional activity meters.

[4] = system: patients with Huntington's disease; experiment: trial in patients with Huntington's disease; type: in vivo, human; settings: add on, 2.5 to 20 mg b.i.d.
Procedure: A typical trial to establish the effect of the compounds according to the invention on chorea, voluntary motor performance, and functional disability in patients with Huntington's disease encompasses 32 genetically diagnosed patients. (2R,4R)-2-({[5-(4-fluorophenyl)-pyridin-3ylmethyl]-amino}-methyl)-chroman-4-ol monohydrochloride hemihydrate or placebo is administered as “add on” to the conventional treatment, which is maintained unchanged during the whole study. The dose of blinded medication is titrated over a period of 3 weeks in a range from 2.5 to 20 mg b.i.d. Then the medication is held constant for 1 week. Assessments are performed in the week before and at the last day of the trial. Chorea is scored using the abnormal involuntary movement scale (AIMS, W. Guy, in: ECDEU assessment manual. Rockville Md.: US dept. of health, education and welfare, 1976: 534-537), the unified Huntington's disease rating scale (UHDRS, Huntington study group, 1996, Movement Disord, 11: 13642), and judgement of video recordings. Voluntary motor performance is assessed using the UHDRS motor scale. Patients and their partners complete a questionnaire regarding functional disability.

[5] = system: patients with cervical dystonia (spasmodic torticollis); experiment: double-blind study in cervical dystonia (TWSTRS); type: in vivo, human; settings: 2.5 mg to 20 mg b.i.d.
[6] = system: neuroleptics sensitized monkey; experiment: neuroleptics sensitized monkey; type: in vivo; settings: haloperidol challenge, scoring system
Excerpt: Another typical animal model is the neuroleptics sensitized monkey according to D. E. Casey, Psychopharmacology, 1996; 124: 134-140. Monkeys treated repeatedly with conventional neuroleptics are highly sensitive to a subsequent challenge dose of neuroleptic drugs. When challenged, the monkeys immediately show extrapyramidal motor side effects such as dystonia, dyskinesias, akathisia, and bradykinesia which are rated by a scoring system. The conventional neuroleptic drug haloperidol is given as a challenge.

[7] = system: oxotremorine-induced tremor; experiment: oxotremorine-induced tremor; type: in vivo; settings: rating scale
Procedure: A typical animal model for drug-induced tremors is the oxotremorine-induced tremor (e.g. H. Hallberg and O. Almgren, Acta Physiol. Scand., 1987; 129: 407-13; J. G. Clement and W. R. Dyck, J. Pharmacol. Meth., 1989; 22: 25-36). Oxotremorine induces tremor which is measured by a rating scale.

[8] = system: rats; experiment: posthypoxic myoclonus in rats; settings: rat, in vivo
Procedure: A typical animal model for myoclonus is myoclonus induced by an acute hypoxic episode according to D. D. Truong et al., Mov. Dsiord., 1994; 9: 201-206). In this model of posthypoxic myoclonus, rats undergo a cardiac arrest for 8 minutes and are resuscitated thereafter. Myoclonic jerks occur spontaneously but can be provoked by auditory stimulation, too, worsening over the days following cardiac arrest.

O[C@@H]1C[C@H](CNCc2cncc(-c3ccc(F)cc3)c2)Oc2ccccc21 [(2R,4R)-2-({[5-(4-fluorophenyl)-pyridin-3ylmethyl]-amino}-methyl)-chroman-4-ol]
IC50 [1]: 10 nM
ED50 [2]: ~2 mg/kg
akinesia (distance travelled and time active) [3]: dose-dependently reduce akinesia
voluntary and involuntary motor performance [4]: significant improvement of voluntary and involuntary motor performance
TWSTRS scores [5]: significant improvement
extrapyramidal motor side effects [6]: dose-dependently reduce the extrapyramidal motor side effects
oxotremorine-induced tremors [7]: inhibit oxotremorine-induced tremors
number of spontaneous and auditory-evoked myoclonic jerks [8]: dose-dependently reduce the number of spontaneous and autitory-evoked myoclonic jerks
